Results published in publication PMC6190683 (Bioorganic & medicinal chemistry letters, 2017).

Biological target: Mtb NadE (Mycobacterium tuberculosis, UniProt P9WJJ3)
Experiment: ammonia-dependent Mtb NadE inhibition assay
Type: biochemical

Mtb NadE, sequence (P9WJJ3 whole entry): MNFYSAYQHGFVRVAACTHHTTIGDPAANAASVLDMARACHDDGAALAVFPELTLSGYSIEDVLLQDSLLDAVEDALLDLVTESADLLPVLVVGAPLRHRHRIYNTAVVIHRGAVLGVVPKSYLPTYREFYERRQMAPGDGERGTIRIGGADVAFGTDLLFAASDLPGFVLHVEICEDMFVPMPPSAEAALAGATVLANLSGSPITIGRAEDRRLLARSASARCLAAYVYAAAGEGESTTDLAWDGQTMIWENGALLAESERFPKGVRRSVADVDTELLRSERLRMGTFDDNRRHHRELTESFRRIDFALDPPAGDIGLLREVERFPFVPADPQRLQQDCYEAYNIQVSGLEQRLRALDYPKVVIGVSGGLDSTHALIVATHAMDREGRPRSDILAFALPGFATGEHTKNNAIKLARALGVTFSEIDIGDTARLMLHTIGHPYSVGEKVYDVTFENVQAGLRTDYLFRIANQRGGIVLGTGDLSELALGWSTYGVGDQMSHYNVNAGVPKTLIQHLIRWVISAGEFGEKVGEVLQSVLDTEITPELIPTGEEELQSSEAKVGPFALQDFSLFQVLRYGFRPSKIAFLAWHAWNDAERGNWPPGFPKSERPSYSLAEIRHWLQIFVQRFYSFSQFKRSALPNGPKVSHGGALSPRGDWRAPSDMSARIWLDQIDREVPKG

SMILES | IC50 [µM]
O=C(Nc1ccc([N+](=O)[O-])cc1)Nc1ccc(S(=O)(=O)Nc2ccc([N+](=O)[O-])cc2)cc1 [Compound 4f] | > 200
O=C(Nc1ccc([N+](=O)[O-])cc1)Nc1ccc(S(=O)(=O)Nc2ccccc2)cc1 [Compound 4l] | > 200
O=C(Nc1ccc([N+](=O)[O-])cc1)Nc1ccc(S(=O)(=O)Nc2cccc(C(F)(F)F)c2)cc1 [Compound 4h] | > 200
COc1ccc(NS(=O)(=O)c2ccc(NC(=O)Nc3ccc([N+](=O)[O-])cc3)cc2)cc1 [Compound 4d] | > 200
